{
  "source": "patent US20230117205A1",
  "about": "“B7-H4 ANTIBODY-DRUG CONJUGATES FOR THE TREATMENT OF CANCER” (SEAGEN INC., priority 2021, published 2023)",
  "key": {"[1]": {"test_system": "WIL2S and RAJI cells transduced to express human B7-H4", "assay": "CDC, Sytox Green, 10% human serum", "assay_type": "cell-based", "method": "Antibodies have the ability to recruit complement proteins triggering complement-dependent cytotoxicity (CDC).\nUsing complement media (RPMI containing 10% human serum (Complement Technology, Inc. #NHS)), test antibodies and controls were titrated with a 3-fold dilution ranging from 50-0.02 μg/mL and 100 μL/well of the titrations were plated over the target cells. To measure total cell death, 2% Triton X (EMD Millipore Corp. #648463-50ML) was used as a positive control. Test plate was incubated for 2 hours at 37° C. in a humidity-controlled incubator and then Sytox Green fluorescence was read on an Envision plate reader."}, "MX-1 xenograft model": {"test_system": "MX-1 xenograft model", "assay": "MX-1 xenograft, Study MX1-2", "assay_type": "in vivo, SCID mice", "details": "3 mg/kg, three weekly doses, i.p.", "method": "Tumor volume was measured twice weekly until study day 84.\nFemale SCID mice were implanted with 5×10^5 MX1 tumor cells in 25% Matrigel H C (Corning #354248) subcutaneously. Once tumor volumes reached 100 mm^3, mice were randomized into treatment groups of 5 mice each and dosed with 3 mg/kg of ADC every seven days for three total doses (q7dx3). Tumor volumes were measured twice per week, and animals were euthanized when tumor volume reached 700-1000 mm^3. Stock concentrations of ADC were diluted to a desired concentration (with 0.01% Tween20 in PBS) and injected i.p. into each treatment group."}, "[2]": {"test_system": "B7-H4 expression on OVCAR3 tumors", "assay": "IHC of B7-H4 on treated OVCAR3 xenograft tumors", "assay_type": "in vivo, SCID mice", "details": "OVCAR3 tumors after treatment", "method": "Antigen retrieval was performed using a Decloaking Chamber NxGen Biocare and the 110° C. program with Diva Retrieval solution. Slides were stained on the IntelliPath Automated stainer per the following protocol: Remove hot containers from the decloaking chamber and rinse in deionized water. Place slides in TBST prior to adding to IntelliPath. Hydrate slides on stainer prior to automation Add 300 uL/slide Peroxidaze (Biocare #PX968) and incubate 10 minutes. Wash slides in TBST. Add 300 uL/slide Sniper block (Biocare #B5966) and incubate 10 minutes. Blot off blocking solution. Add 300 uL/slide primary antibody and incubate 1 hour. Wash slides twice in TBST. Add 300 uL/slide HRP polymer and incubate 30 minutes. Wash slides twice in TBST. Add 300 uL/slide DAB (Vector #sk-4103) and incubate 5 minutes. Wash in TBST. Add 300 uL/slide hematoxylin and incubate 2 minutes. Wash in deionized water. Dehydrate slides by placing them in the oven for 30 minutes. Place coverslip on slides. Images were analyzed using Halo image analysis software (Indica Labs). The H-score was calculated according to the following equation: (3×% Strong Signal)+(2×% Moderate Signal)+(Weak Signal). […]"}, "TNBC PDX models": {"test_system": "TNBC PDX models", "assay": "TNBC patient-derived xenograft models", "assay_type": "in vivo, mice", "details": "3 mg/kg q7dx3; for % TGI: vs untreated", "method": "Tumor size and body weight were measured twice weekly, and the study was terminated when tumors in the control group reached 1500 mm^3 or up to Day 28, whichever occurred first, or maximum up to Day 60.\n(§1) Specifically, stock mice were bilaterally implanted with fragments from one of the Champions TumorGraft® models representing human triple negative breast cancer. After the tumors reached 1000-1500 mm^3, they were harvested, and the tumor fragments were implanted subcutaneously (s.c.) in the left flank of the female study mice. Each animal was implanted with a specific passage lot and documented. Tumor growth was monitored twice a week using digital calipers, and the tumor volume (TV) was calculated using the formula (0.52×[length×width^2]). When the TV reached approximately 150-300 mm^3, animals were matched by tumor size and assigned into control (untreated) or treatment groups (n=1-3 animals/group). Each animal in the treatment groups was dosed with 10 mg/kg hIVIG (Grifolds), followed by 3 mg/kg of ADC every seven days for three total doses (q7dx3). Tumor size and body weight were measured twice weekly, and the study was terminated when tumors in the control group reached 1500 mm^3 or up to Day 28, whichever occurred first, or maximum up to Day 60.\n(§2) Inhibition of tumor growth was determined by calculating the percent TGI on the day at which animals in the control group were terminated (100%×[1−(final MTV−initial MTV of a treated group)/(final MTV−initial MTV of the control group)]). Treatment started on Day 0."}, "HR+ BC PDX models": {"test_system": "HR+ BC PDX models", "assay": "HR+ breast cancer patient-derived xenograft models", "assay_type": "in vivo, mice", "details": "for % TGI: 3 mg/kg q7dx3, vs untreated", "method": "as §1, with “Stock” for “stock”, “HR^+ BC or ovarian” for “triple negative breast”, “(n=3” for “(n=1-3”, “with” for “with 10 mg/kg hIVIG (Grifolds), followed by”, “Tumor size and body weight were measured twice weekly, and the study was terminated when tumors in the control group reached 1500 mm^3 or up to Day 28, whichever occurred first, or maximum up to Day 60.” left out\nas §2"}, "[3]": {"test_system": "MDA-MB-468 xenograft tumors", "assay": "MDA-MB-468 xenograft, single dose, tumor volume", "assay_type": "in vivo, NSG mice", "details": "single 3 mg/kg dose, i.p.", "method": "Tumors were harvested 7 days after treatment, cut in half, and processed for RNA-seq or IHC. […]\nSpecifically, female NSG mice were implanted with 1×10^6 MDA-MB-468 cells in 25% Matrigel H C subcutaneously. Once tumor volumes reached ˜250-300 mm^3, mice were randomized into treatment groups of 6 mice each and treated with a single 3 mg/kg dose of ADC or mAb, or vehicle control (20 mM Histidine buffer, pH 6.0) injected intraperitoneally (i.p.). Stock concentrations of ADC were diluted to desired concentration with 20 mM Histidine buffer, pH 6.0 or and stock concentration of mAb were diluted to desired concentration with 0.01% Tween20 in PBS. Twenty-four hours prior to dosing, each animal was treated with 10 mg/kg hIVIG. One week following treatment, tumors were harvested, cut in half, and processed for RNAseq (frozen at −80° C.) or formalin-fixed and paraffin-embedded for immunohistochemical (IHC) analysis."}},
  "data": [
    {"substance": "SGN-B7H4V: ADC of fully human IgG1 anti-B7-H4 mAb conjugated to monomethyl auristatin E (MMAE) via a protease-cleavable valine-citrulline linker (vedotin)", "values": [
      {"measurement": "lysis (CDC)", "setting": "[1]", "result": "did not induce lysis"},
      {"measurement": "anti-tumor activity (tumor volume)", "setting": "MX-1 xenograft model", "result": "regression of tumor volumes in all mice"},
      {"measurement": "mice with sustained regression", "setting": "MX-1 xenograft model", "result": "4 of the 5"},
      {"measurement": "impact on tumor B7-H4 expression", "setting": "[2]", "result": "did not have a significant impact"},
      {"measurement": "PDX models with tumor regression or tumor growth delay (e.g. TGI>50%)", "setting": "TNBC PDX models; TNBC", "result": "9/11"},
      {"measurement": "% TGI", "setting": "TNBC PDX models; TNBC_1, Day 13", "result": 111, "unit": "%"},
      {"measurement": "% TGI", "setting": "TNBC PDX models; TNBC_2, Day 7", "result": 86, "unit": "%"},
      {"measurement": "% TGI", "setting": "TNBC PDX models; TNBC_3, Day 20", "result": 71, "unit": "%"},
      {"measurement": "% TGI", "setting": "TNBC PDX models; TNBC_4, Day 20", "result": 55, "unit": "%"},
      {"measurement": "% TGI", "setting": "TNBC PDX models; TNBC_5, Day 9", "result": 106, "unit": "%"},
      {"measurement": "% TGI", "setting": "TNBC PDX models; TNBC_6, Day 20", "result": 62, "unit": "%"},
      {"measurement": "% TGI", "setting": "TNBC PDX models; TNBC_7, Day 20", "result": 25, "unit": "%"},
      {"measurement": "% TGI", "setting": "TNBC PDX models; TNBC_8, Day 17", "result": 67, "unit": "%"},
      {"measurement": "% TGI", "setting": "TNBC PDX models; TNBC_9, Day 22", "result": 26, "unit": "%"},
      {"measurement": "% TGI", "setting": "TNBC PDX models; TNBC_10, Day 27", "result": 100, "unit": "%"},
      {"measurement": "% TGI", "setting": "TNBC PDX models; TNBC_11, Day 52", "result": 109, "unit": "%"},
      {"measurement": "PDX models with antitumor activity", "setting": "HR+ BC PDX models; HR+ BC, 3 mg/kg, 3 weekly doses", "result": "⅙"},
      {"measurement": "% TGI", "setting": "HR+ BC PDX models; HR+ BC_1, Day 38", "result": 7, "unit": "%"},
      {"measurement": "% TGI", "setting": "HR+ BC PDX models; HR+ BC_2, Day 34", "result": 79, "unit": "%"},
      {"measurement": "% TGI", "setting": "HR+ BC PDX models; HR+ BC_3, Day 16", "result": 28, "unit": "%"},
      {"measurement": "% TGI", "setting": "HR+ BC PDX models; HR+ BC_4, Day 59", "result": 12, "unit": "%"},
      {"measurement": "% TGI", "setting": "HR+ BC PDX models; HR+ BC_5, Day 59", "result": 11, "unit": "%"},
      {"measurement": "% TGI", "setting": "HR+ BC PDX models; HR+ BC_6, Day 62", "result": 16, "unit": "%"},
      {"measurement": "tumor volume", "setting": "[3]", "result": "reduction in tumor volume"}
    ]}
  ]
}
